Source: patent publication US10201532B2, “Compounds and their use” (ALLECRA THERAPEUTICS GMBH, priority 2010, dated 2019)

Tests used:
[1] = system: E. coli ATCC 25922 (β-lac-ve); test: Disk zone of inhibition, antibiotic + Compound-1 on same disk (Methodology 2); type: cell-based, Escherichia coli; details: CAZ 30 μg or IPM 10 μg disk alone; ATCC 25922
[2] = system: KPC-2 producing K. pneumoniae (ATCC BAA-1705); test: Synergistic broth micro-dilution MIC (checkerboard); type: cell-based, Klebsiella pneumoniae; details: for MIC: Klebsiella pneumoniae, ATCCBAA1705, no BLI, read-out: MIC of antibiotic alone (no BLI); for MIC / MIC of Imipenem in combination with BLI: ATCC BAA-1705; for Activity with imipenem against the KPC (2 & 3) producing strains, in words: summary of Table 2, all five strains
[3] = system: K. pneumoniae ATCC 700603 (SHV18); test: Disk zone of inhibition, antibiotic + Compound-1 on same disk (Methodology 2); type: cell-based, Klebsiella pneumoniae; details: CAZ 30 μg or IPM 10 μg disk alone
Excerpt: (§1) In this experiment, Compound-1 is used as a diagnostic reagent for the detection of β-lactamases belonging to the families KPC & ESBL (e.g., SHV18) producing Enterobacteriaceae. A simple set of absorbent paper disks impregnated with antibiotic on agar medium is used for the detection.
(§2) • 0.5 McFarland of the test organism was inoculated at 1:10 dilution on Muller • Hinton Agar plates • Test organisms: Klebsiella pneumoniae (K.p) ATCC BAA-1705, Klebsiella pneumoniae ATCC 700603, Escherichia coli (E.c) Ecoli233 • Carbapenem (e.g., Imipenem [IPM] 10 μg) and cephalosporin (e.g., Ceftazidime [CAZ] 30 μg) paper disks (7 mm) were placed on the inoculated agar plates • Compound-1 (60 μg) disk was placed at a distance of 7 & 10 mm from the carbapenem and cephalosporin disks. • The presence of expressed carbapenemases or ESBLs was measured as the expansion of Imipenem or Ceftazidime's inhibition zones due to synergy in the presence of Compound-1. Results:
(§3) The methodology remains the same as Methodology 1 except the following change • Compound-1 (60 μg) was added on the same disk in combination with a carbapenem (e.g., Imipenem 10 μg) or cephalosporin (e.g., Ceftazidime 30 μg) and placed on the inoculated agar plate. • The presence of the expressed carbapenemases or ESBLs was measured as an increase in Imipenem or Ceftazidime's zone diameter in combination with Compound-1 compared to antibiotic alone. Results

[4] = system: K. pneumoniae ATCC BAA-1705 (KPC2); test: as above; type: cell-based, Klebsiella pneumoniae; details: CAZ 30 μg or IPM 10 μg disk alone
Excerpt: as §1
as §2, with “Compound-1.” for “Compound-1. Results:”
as §3

E. coli Ecoli233 (KPC3) [5] = test: as above; type: cell-based, Escherichia coli; details: CAZ 30 μg or IPM 10 μg disk alone
Excerpt: as §1
as §2, with “Compound-1.” for “Compound-1. Results:”
as §3

[6] = system: KPC-3 expressing E. coli (J53 R6206); test: Synergistic broth micro-dilution MIC (checkerboard); type: cell-based, Escherichia coli; details: no BLI
E. coli Ecoli233 (KPC3) [7] = test: Synergistic broth micro-dilution MIC; type: cell-based, Escherichia coli
[8] = system: K. pneumoniae UMM3 (KPC2); test: Synergistic broth micro-dilution MIC; type: cell-based, Klebsiella pneumoniae; details: for MIC of Imipenem in combination with BLI: BLI at 4 μg/mL
E. coli BAA-200 (SHV-4) = test: MIC of Piperacillin with inhibitor, ESBL isolates; type: cell-based, Escherichia coli
[9] = system: E. cloacae 01 MGH 049 (KPC2, AmpC); test: Synergistic broth micro-dilution MIC; type: cell-based; details: for MIC of Imipenem in combination with BLI: BLI at 4 μg/mL
[10] = system: K. pneumoniae 700603 (SHV-18); test: MIC of Piperacillin with inhibitor, ESBL isolates; type: cell-based, Klebsiella pneumoniae
E. coli BAA-197 (TEM-12) = test: MIC of Piperacillin with inhibitor, ESBL isolates; type: cell-based, Escherichia coli
[11] = system: P. mirabilis BAA-663 (TEM-89); test: MIC of Piperacillin with inhibitor, ESBL isolates; type: cell-based
E. coli BAA-198 (TEM-26) = test: MIC of Piperacillin with inhibitor, ESBL isolates; type: cell-based, Escherichia coli
[12] = system: K. pneumoniae NCTC 13438 (KPC3); test: Synergistic broth micro-dilution MIC; type: cell-based, Klebsiella pneumoniae; details: for MIC of Imipenem in combination with BLI: BLI at 4 μg/mL
E. coli BAA-199 (SHV-3) = test: MIC of Piperacillin with inhibitor, ESBL isolates; type: cell-based, Escherichia coli
E. coli BAA-201 (TEM-3) = test: MIC of Piperacillin with inhibitor, ESBL isolates; type: cell-based
[13] = system: KPC2 K. pneumoniae ATCC BAA 1705; test: Neutropenic mice thigh infection model (human adapted model); type: in vivo; details: Imipenem 140 mg/kg fractionated over 5.5 h; end point 6 h
Method: Female Swiss Albino mice weighing 24-30 g were used for all studies. Study protocols were reviewed and approved by Institutional Animal Ethical Committee, Orchid Research Laboratories Limited. Mice were rendered neutropenic by intra-peritoneal cyclophosphamide injections. Log phase culture in brain heart infusion broth was injected in to mice thighs. Imipenem or Doripenen alone or in combination were administered sub-cutaneously in decreasing fractionated doses every 15 minutes over the period of 5.5 h (Flückiger, U. et al. “Integration of pharmacokinetics and pharmacodynamics of Imipenem in a human-adapted mouse model’. Antimicrobial Agents and Chemother, 1991, 35(9): 1905-1910). The Compound-1 or tazobactam was administered sub-cutaneously as bolus dose at the start of dosing. Efficacy end point was 6 h in Imipenem studies and 8 h in Doripenen studies.
Three experiments were carried out where Doripenen alone or in combination with compound-1 or tazobactam (two experiments) were evaluated. Doripenem 70 mg/kg was administered in fractionated doses over the period of 5.5 h (Fluckiger, U. et al. “Integration of pharmacokinetics and pharmacodynamics of Imipenem in a human-adapted mouse model’. Antimicrobial Agents and Chemother., 1991, 35(9): 1905-1910). Compound-1 or tazobactam was administered as bolus dose at initiation of therapy. Efficacy end point was 8 h after initiation of therapy.

[14] = system: KPC2 K. pneumoniae ATCC BAA 1705; test: Mice systemic infection model; type: in vivo; details: Klebsiella pneumoniae, BAA1705; mice, sub-cutaneous; with cilastatin; read-out: ED50 of Imipenem alone
Method: Female Swiss Albino mice, weighing 18-22 g were used for all studies. For each dose group, 5 or 6 mice were included. Study protocols were reviewed and approved by Institutional Animal Ethical Committee, Orchid Research Laboratories Limited. Mice were housed in individually ventilated cages provided with food and water ad libitum, throughout the study period. From overnight culture in Brain-Heart Infusion agar medium, challenge inoculum with required bacterial density was prepared in normal saline containing Hog gastric mucin. In studies involved with doripenem, washed bacterial cells was used. Each mouse was infected […] inoculum by intra-peritoneal injection.
Infected mice were dosed sub-cutaneously, with drug preparations at three different time points post-infection.
Imipenem with BLI combinations: Increasing concentrations of Imipenem as single agent or in combination with fixed concentration of BLIs were used to dose infected mice, sub-cutaneously. In this experiment Imipenem was always administered along with cilastatin. Doripenem with BLI combinations: Increasing concentrations of doripenem as single agent or in combination with fixed concentration of BLIs were used to dose infected mice, sub-cutaneously.
Survival of the treated mice were monitored twice a day, up to 7 days post-infection. Efficacy dose 50 (ED50) was calculated by Reed and Muench method (Reed, L. J.; Muench, H. “A simple method of estimating fifty percent endpoints”. The American Journal of Hygiene, 1938, 27: 493-497.).

MIC of Imipenem in combination with BLI (E. coli Ecoli233 (KPC3) [7]; BLI at 4 μg/mL) [µg/mL]	MIC of Imipenem in combination with BLI (E. coli Ecoli233 (KPC3) [7]; BLI at 16 μg/mL) [µg/mL]	MIC of Imipenem in combination with BLI [8] [µg/mL]	MIC of Imipenem in combination with BLI ([2]; BLI at 4 μg/mL) [µg/mL]	MIC of Imipenem in combination with BLI ([2]; BLI at 16 μg/mL) [µg/mL]	MIC of Piperacillin with inhibitor (E. coli BAA-200 (SHV-4); inhibitor at 1 μg/mL) [µg/mL]	MIC of Piperacillin with inhibitor (E. coli BAA-200 (SHV-4); inhibitor at 2 μg/mL) [µg/mL]	MIC of Piperacillin with inhibitor (E. coli BAA-200 (SHV-4); inhibitor at 4 μg/mL) [µg/mL]	MIC of Imipenem in combination with BLI [9] [µg/mL]	MIC of Piperacillin with inhibitor ([10]; inhibitor at 1 μg/mL) [µg/mL]	MIC of Piperacillin with inhibitor ([10]; inhibitor at 2 μg/mL) [µg/mL]	MIC of Piperacillin with inhibitor ([10]; inhibitor at 4 μg/mL) [µg/mL]	MIC of Piperacillin with inhibitor (E. coli BAA-197 (TEM-12); inhibitor at 1 μg/mL) [µg/mL]	SMILES	Zone of inhibition (ZOI), antibiotic alone [1] [mm]	MIC [2] [µg/mL]	Zone of inhibition (ZOI), antibiotic alone [3] [mm]	Zone of inhibition (ZOI), antibiotic alone [4] [mm]	Zone of inhibition (ZOI), antibiotic alone (E. coli Ecoli233 (KPC3) [5]) [mm]	MIC of antibiotic alone (no BLI) [6] [µg/mL]	Activity with imipenem against the KPC (2 & 3) producing strains, in words [2]	also measured
–	–	–	–	–	–	–	–	–	–	–	–	–	CC(C)(O/N=C(\C(=O)N[C@@H]1C(=O)N2C(C(=O)[O-])=C(C[n+]3ccccc3)CS[C@H]12)c1csc(N)n1)C(=O)O [Ceftazidime]	25	> 128	12	12	11	>32	–	–
4	1	2	4	4	32	8	4	8	8	16	8	4	C[n+]1ccn(C[C@@]2(C)[C@H](C(=O)[O-])N3C(=O)C[C@H]3S2(=O)=O)c1 [Compound-12, (2S,3S,5R)-3-Methyl-3-(3-methyl-imidazol-3-ium-1-ylmethyl)-4,4,7-trioxo-4-thia-1-azabicyclo[3.2.0]heptane-2-carboxylate]	–	–	–	–	–	–	improved activity	MIC of Piperacillin with inhibitor (E. coli BAA-197 (TEM-12); inhibitor at 2 μg/mL): 4 µg/mL; MIC of Piperacillin with inhibitor (E. coli BAA-197 (TEM-12); inhibitor at 4 μg/mL): 4 µg/mL; MIC of Piperacillin with inhibitor ([11]; inhibitor at 1 μg/mL): 8 µg/mL; MIC of Piperacillin with inhibitor ([11]; inhibitor at 2 μg/mL): 16 µg/mL; MIC of Piperacillin with inhibitor ([11]; inhibitor at 4 μg/mL): >128 µg/mL; MIC of Piperacillin with inhibitor (E. coli BAA-198 (TEM-26); inhibitor at 1 μg/mL): 4 µg/mL; MIC of Piperacillin with inhibitor (E. coli BAA-198 (TEM-26); inhibitor at 2 μg/mL): 4 µg/mL; MIC of Piperacillin with inhibitor (E. coli BAA-198 (TEM-26); inhibitor at 4 μg/mL): 4 µg/mL; MIC of Imipenem in combination with BLI [12]: 64 µg/mL; MIC of Piperacillin with inhibitor (E. coli BAA-199 (SHV-3); inhibitor at 1 μg/mL): >128 µg/mL; MIC of Piperacillin with inhibitor (E. coli BAA-199 (SHV-3); inhibitor at 2 μg/mL): >128 µg/mL; MIC of Piperacillin with inhibitor (E. coli BAA-199 (SHV-3); inhibitor at 4 μg/mL): 2 µg/mL; MIC of Piperacillin with inhibitor (E. coli BAA-201 (TEM-3); inhibitor at 1 μg/mL): 2 µg/mL; MIC of Piperacillin with inhibitor (E. coli BAA-201 (TEM-3); inhibitor at 2 μg/mL): 4 µg/mL; MIC of Piperacillin with inhibitor (E. coli BAA-201 (TEM-3); inhibitor at 4 μg/mL): 4 µg/mL
16	16	8	8	8	>128	>128	>128	8	16	32	16	4	C[C@]1(Cn2ccnc2)[C@H](C(=O)O)N2C(=O)C[C@H]2S1(=O)=O [Compound-M, (2S,3S,5R)-3-(imidazol-1-ylmethyl)-3-methyl-4,4,7-trioxo-4-thia-1-aza-bicyclo[3.2.0]heptane-2-carboxylic acid]	–	–	–	–	–	–	only moderately active	MIC of Piperacillin with inhibitor (E. coli BAA-197 (TEM-12); inhibitor at 2 μg/mL): 8 µg/mL; MIC of Piperacillin with inhibitor (E. coli BAA-197 (TEM-12); inhibitor at 4 μg/mL): 4 µg/mL; MIC of Piperacillin with inhibitor ([11]; inhibitor at 1 μg/mL): 64 µg/mL; MIC of Piperacillin with inhibitor ([11]; inhibitor at 2 μg/mL): >128 µg/mL; MIC of Piperacillin with inhibitor ([11]; inhibitor at 4 μg/mL): >128 µg/mL; MIC of Piperacillin with inhibitor (E. coli BAA-198 (TEM-26); inhibitor at 1 μg/mL): 4 µg/mL; MIC of Piperacillin with inhibitor (E. coli BAA-198 (TEM-26); inhibitor at 2 μg/mL): 4 µg/mL; MIC of Piperacillin with inhibitor (E. coli BAA-198 (TEM-26); inhibitor at 4 μg/mL): 4 µg/mL; MIC of Imipenem in combination with BLI [12]: 64 µg/mL; MIC of Piperacillin with inhibitor (E. coli BAA-199 (SHV-3); inhibitor at 1 μg/mL): >128 µg/mL; MIC of Piperacillin with inhibitor (E. coli BAA-199 (SHV-3); inhibitor at 2 μg/mL): >128 µg/mL; MIC of Piperacillin with inhibitor (E. coli BAA-199 (SHV-3); inhibitor at 4 μg/mL): >128 µg/mL; MIC of Piperacillin with inhibitor (E. coli BAA-201 (TEM-3); inhibitor at 1 μg/mL): 4 µg/mL; MIC of Piperacillin with inhibitor (E. coli BAA-201 (TEM-3); inhibitor at 2 μg/mL): 4 µg/mL; MIC of Piperacillin with inhibitor (E. coli BAA-201 (TEM-3); inhibitor at 4 μg/mL): 4 µg/mL
–	–	–	–	–	–	–	–	–	–	–	–	–	C[C@@H](O)[C@H]1C(=O)N2C(C(=O)O)=C(SCCN=CN)C[C@H]12 [Imipenem]	26.5	32 to 64	25	14.5	14	2 to 4	–	MIC (E. coli Ecoli233 (KPC3) [7]; Escherichia coli, no BLI, read-out: MIC of imipenem, No BLI): 16 µg/mL; Bacterial load, Imipenem alone [13]: 6.8E+06 CFU/thigh; MIC ([8]; Klebsiella pneumoniae, no BLI, read-out: MIC of imipenem, No BLI): 8 µg/mL; ED50 [14]: 8.9 mg/kg; MIC ([9]; Enterobacter cloacae, no BLI, read-out: MIC of imipenem, No BLI): 8 µg/mL; MIC ([12]; Klebsiella pneumoniae, NCTC13438, no BLI, read-out: MIC of imipenem, No BLI): 128 µg/mL
